This note sets out measurements from patent US8173638B2 (Boehringer Ingelheim International GmbH, priority 2006, dated 2012).

The term EC50 denotes the concentration needed to bring the measured effect to its halfway point.

The target of the first assay is T1, human CB2R (Homo sapiens, UniProt P34972).
T1 construct: host or cells: CHO cells
T1 sequence (P34972 whole entry): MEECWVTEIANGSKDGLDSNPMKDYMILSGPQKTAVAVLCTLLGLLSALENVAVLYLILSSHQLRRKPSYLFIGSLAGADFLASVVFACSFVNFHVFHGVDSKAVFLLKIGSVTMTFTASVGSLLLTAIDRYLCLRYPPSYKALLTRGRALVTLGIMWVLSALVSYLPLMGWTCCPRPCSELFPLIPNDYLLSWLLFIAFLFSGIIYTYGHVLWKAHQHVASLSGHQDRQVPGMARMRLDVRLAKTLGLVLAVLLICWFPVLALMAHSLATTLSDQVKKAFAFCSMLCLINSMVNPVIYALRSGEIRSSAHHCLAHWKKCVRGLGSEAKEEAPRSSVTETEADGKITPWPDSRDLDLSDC
Description: CB2R mediated modulation of cAMP synthesis. It counts as cell-based. The settings on record: 0.5 h; CHO cells expressing human CB2R; cAMP inhibited by 1 uM CP55940 defined as 100%; read-out: Agonist Efficacy (%). The method in brief: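 CHO cells expressing human CB2R treated with compound 30 min at 37 °C in buffer with 1 mM IBMX, 0.25% BSA and 10 uM forskolin. cAMP measured after lysis by DiscoverX-XS kit.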
As to `CC(C)c1ccc(NC(=O)N2CCCN(C(=O)C3CCCCC3)CC2)cc1` [Compound 34, 4-Cyclohexanecarbonyl-[1,4]diazepane-1-carboxylic acid (4-isopropyl-phenyl)-amide], the Emax amounted to 102%. `CC(C)c1ccc(NC(=O)N2CCCN(C(=O)CC3CCCCC3)CC2)cc1` [Compound 36, 4-(2-Cyclohexyl-acetyl)-[1,4]diazepane-1-carboxylic acid (4-isopropyl-phenyl)-amide]: the Emax amounted to 95%.

The same assay, now with this note: found through the use of the described assays (CB2 agonists); qualitative statement.
With `CC(C)c1cnc(NC(=O)N2CCCN(C(=O)C3CCOCC3)CC2)s1` [4-(Tetrahydro-pyran-4-carbonyl)-[1,4]diazepane-1-carboxylic acid (5-isopropyl-thiazol-2-yl)-amide], the agonistic activity entry is “agonistic activity”. The same measure, in the same setting: the same measure for `O=C(Nc1cc(-c2ccccc2)on1)N1CCCN(C(=O)C2CCOCC2)CC1` [4-(Tetrahydro-pyran-4-carbonyl)-[1,4]diazepane-1-carboxylic acid (5-phenyl-isoxazol-3-yl)-amide]: “agonistic activity”. Still for that read-out and setting: the same measure for `CCC(C)c1cc(NC(=O)N2CCCN(C(=O)C3CCOCC3)CC2)n(C)n1` (centres unmarked) [4-(Tetrahydro-pyran-4-carbonyl)-[1,4]diazepane-1-carboxylic acid (5-sec-butyl-2-methyl-2H-pyrazol-3-yl)-amide]: “agonistic activity”; for `CCC(C)c1ccc(NC(=O)N2CCCN(C(=O)C3CCOCC3)CC2)nc1` (centres unmarked) [4-(Tetrahydro-pyran-4-carbonyl)-[1,4]diazepane-1-carboxylic acid (5-sec-butyl-pyridin-2-yl)-amide]: “agonistic activity”; for `CC(C)(C)c1cc(NC(=O)N2CCCN(C(=O)C3CCOCC3)CC2)[nH]n1` [4-(Tetrahydro-pyran-4-carbonyl)-[1,4]diazepane-1-carboxylic acid (5-tert-butyl-2H-pyrazol-3-yl)-amide]: “agonistic activity”. The same measure, in the same setting: the same measure for `Cc1nc(NC(=O)N2CCCN(C(=O)C3CCOCC3)CC2)sc1C(C)(C)C` [4-(Tetrahydro-pyran-4-carbonyl)-[1,4]diazepane-1-carboxylic acid (5-tert-butyl-4-methyl-thiazol-2-yl)-amide]: “agonistic activity”. On to `CC(C)(C)c1cc(NC(=O)N2CCCN(C(=O)C3CCOCC3)CC2)no1` [4-(Tetrahydro-pyran-4-carbonyl)-[1,4]diazepane-1-carboxylic acid (5-tert-butyl-isoxazol-3-yl)-amide], for which the agonistic activity result is on record as “agonistic activity”. The same measure, in the same setting: the same measure for `O=C(Nc1ccc(C(F)(F)F)cn1)N1CCCN(C(=O)C2CCOCC2)CC1` [4-(Tetrahydro-pyran-4-carbonyl)-[1,4]diazepane-1-carboxylic acid (5-trifluoromethyl-pyridin-2-yl)-amide]: “agonistic activity”. Same read-out and setting: next, `O=C(Nc1ccc(Oc2ccccc2)nc1)N1CCCN(C(=O)C2CCOCC2)CC1` [4-(Tetrahydro-pyran-4-carbonyl)-[1,4]diazepane-1-carboxylic acid (6-phenoxy-pyridin-3-yl)-amide]: “agonistic activity”.

With `CC(c1ccc(NC(=O)N2CCCN(C(=O)C3CCOCC3)CC2)cc1)C(F)(F)F` (centres unmarked) [4-(Tetrahydro-pyran-4-carbonyl)-[1,4]diazepane-1-carboxylic acid [4-(2,2,2-trifluoro-1-methyl-ethyl)-phenyl]-amide], the agonistic activity result is reported as “agonistic activity”.

Turning to `O=C(Nc1ccc2ccccc2c1)N1CCCN(C(=O)C2CCOCC2)CC1` [4-(Tetrahydro-pyran-4-carbonyl)-[1,4]diazepane-1-carboxylic acid naphthalen-2-ylamide], the agonistic activity result is “agonistic activity”.

`O=C(Nc1cnc2ccccc2c1)N1CCCN(C(=O)C2CCOCC2)CC1` [4-(Tetrahydro-pyran-4-carbonyl)-[1,4]diazepane-1-carboxylic acid quinolin-3-ylamide]: the agonistic activity result is listed as “agonistic activity”. Turning to `CC(C)(C)c1cc(NC(=O)N2CCCN(C(=O)N3CCSCC3)CC2)no1` [4-(Thiomorpholine-4-carbonyl)-[1,4]diazepane-1-carboxylic acid (5-tert-butyl-isoxazol-3-yl)-amide], the agonistic activity result is given as “agonistic activity”. As to `CC(C)(C)c1cc(NC(=O)N2CCCN(C(=O)N3CCCOCC3)CC2)no1` [4-([1,4]Oxazepane-4-carbonyl)-[1,4]diazepane-1-carboxylic acid (5-tert-butyl-isoxazol-3-yl)-amide], the agonistic activity result is on record as “agonistic activity”.

In the case of `CCCCc1ccc(NC(=O)N2CCCN(C(=O)c3ccccc3)CC2)cc1` [4-Benzoyl-[1,4]diazepane-1-carboxylic acid (4-butyl-phenyl)-amide], the agonistic activity result is “agonistic activity”. Consider `CC(C)c1ccc(NC(=O)N2CCCN(C(=O)c3ccccc3)CC2)cc1` [4-Benzoyl-[1,4]diazepane-1-carboxylic acid (4-isopropyl-phenyl)-amide], for which the agonistic activity result is given as “agonistic activity”. Consider `O=C(Nc1ccc(C(F)(F)F)cc1)N1CCCN(C(=O)c2ccccc2)CC1` [4-Benzoyl-[1,4]diazepane-1-carboxylic acid (4-trifluoromethyl-phenyl)-amide], for which the agonistic activity result is listed as “agonistic activity”. Still for that read-out and setting: the same measure for `CC(C)(C)c1cc(NC(=O)N2CCCN(C(=O)C3CCCCCC3)CC2)no1` [4-Cycloheptanecarbonyl-[1,4]diazepane-1-carboxylic acid (5-tert-butyl-isoxazol-3-yl)-amide]: “agonistic activity”; for `O=C(Nc1ccc(Cl)c(Cl)c1)N1CCCN(C(=O)C2CCCCC2)CC1` [4-Cyclohexanecarbonyl-[1,4]diazepane-1-carboxylic acid (3,4-dichloro-phenyl)-amide]: “agonistic activity”. Same read-out and setting: next, `O=C(Nc1cc(Cl)cc(Cl)c1)N1CCCN(C(=O)C2CCCCC2)CC1` [4-Cyclohexanecarbonyl-[1,4]diazepane-1-carboxylic acid (3,5-dichloro-phenyl)-amide]: “agonistic activity”; `CCc1ccc(NC(=O)N2CCCN(C(=O)C3CCCCC3)CC2)cc1` [4-Cyclohexanecarbonyl-[1,4]diazepane-1-carboxylic acid (4-ethyl-phenyl)-amide]: “agonistic activity”.

Regarding `CC(C)c1ccc(NC(=O)N2CCCN(C(=O)C3CCCCC3)CC2)cc1` [4-Cyclohexanecarbonyl-[1,4]diazepane-1-carboxylic acid (4-isopropyl-phenyl)-amide], the agonistic activity entry is reported as “agonistic activity”. The same measure, in the same setting: the same measure for `O=C(Nc1ccc(C(F)(F)F)cc1)N1CCCN(C(=O)C2CCCCC2)CC1` [4-Cyclohexanecarbonyl-[1,4]diazepane-1-carboxylic acid (4-trifluoromethyl-phenyl)-amide]: “agonistic activity”; for `O=C(Nc1ccc(SC(F)(F)F)cc1)N1CCCN(C(=O)C2CCCCC2)CC1` [4-Cyclohexanecarbonyl-[1,4]diazepane-1-carboxylic acid (4-trifluoromethylsulfanyl-phenyl)-amide]: “agonistic activity”; for `CC(C)(C)c1cc(NC(=O)N2CCCN(C(=O)C3CCCCC3)CC2)no1` [4-Cyclohexanecarbonyl-[1,4]diazepane-1-carboxylic acid (5-tert-butyl-isoxazol-3-yl)-amide]: “agonistic activity”. As to `O=C(Nc1ccc2ccccc2c1)N1CCCN(C(=O)C2CCCCC2)CC1` [4-Cyclohexanecarbonyl-[1,4]diazepane-1-carboxylic acid naphthalen-2-ylamide], the agonistic activity entry was “agonistic activity”. Same read-out and setting: next, `CCCCc1ccc(NC(=O)N2CCCN(C(=O)C3CCCC3)CC2)cc1` [4-Cyclopentanecarbonyl-[1,4]diazepane-1-carboxylic acid (4-butyl-phenyl)-amide]: “agonistic activity”. Same read-out and setting: the same measure for `CC(C)(C)c1ccc(NC(=O)N2CCCN(C(=O)C3CCCC3)CC2)cc1` [4-Cyclopentanecarbonyl-[1,4]diazepane-1-carboxylic acid (4-tert-butyl-phenyl)-amide]: “agonistic activity”. On the same count and under the same terms, the same measure for `CC(C)(C)c1cc(NC(=O)N2CCCN(C(=O)C3CCCC3)CC2)no1` [4-Cyclopentanecarbonyl-[1,4]diazepane-1-carboxylic acid (5-tert-butyl-isoxazol-3-yl)-amide]: “agonistic activity”; for `O=C(Nc1ccc2ccccc2c1)N1CCCN(C(=O)C2CCCC2)CC1` [4-Cyclopentanecarbonyl-[1,4]diazepane-1-carboxylic acid naphthalen-2-ylamide]: “agonistic activity”.

On to `CC(C)(C)c1cc(NC(=O)N2CCCN(C(=O)CN3CCS(=O)(=O)CC3)CC2)on1` [4-[2-(1,1-Dioxo-1λ^6-thiomorpholin-4-yl)-acetyl]-[1,4]diazepane-1-carboxylic acid (3-tert-butyl-isoxazol-5-yl)-amide], for which the agonistic activity entry is recorded as “agonistic activity”. Still for that read-out and setting: next, `CC(C)(C)c1cc(NC(=O)N2CCCN(C(=O)CN3CCC(F)(F)CC3)CC2)no1` [4-[2-(4,4-Difluoro-piperidin-1-yl)-acetyl]-[1,4]diazepane-1-carboxylic acid (5-tert-butyl-isoxazol-3-yl)-amide]: “agonistic activity”. Still for that read-out and setting: next, `C[C@@H]1CN(CC(=O)N2CCCN(C(=O)Nc3cc(C(C)(C)C)on3)CC2)C[C@H](C)O1` [4-[2-((2R,6S)-2,6-Dimethyl-morpholin-4-yl)-acetyl]-[1,4]diazepane-1-carboxylic acid (5-tert-butyl-isoxazol-3-yl)-amide]: “agonistic activity”.

For the molecule `CC(C)c1ccc(NC(=O)N2CCCN(C(=O)C(C)(C)C)CC2)cc1` [4-pivaloyl-[1,4]diazepane-1-carboxylic acid (4-isopropyl-phenyl)-amide], the agonistic activity entry was “agonistic activity”.

The assay is the same for the next values; noted with them: read-out: hCB2 cAMP EC50.
Take `CC(C)c1ccc(NC(=O)N2CCCN(C(=O)C3CCCCC3)CC2)cc1` [Compound 34, 4-Cyclohexanecarbonyl-[1,4]diazepane-1-carboxylic acid (4-isopropyl-phenyl)-amide]: the EC50 stood at 0.023 µM. For `CC(C)c1ccc(NC(=O)N2CCCN(C(=O)CC3CCCCC3)CC2)cc1` [Compound 36, 4-(2-Cyclohexyl-acetyl)-[1,4]diazepane-1-carboxylic acid (4-isopropyl-phenyl)-amide], the half-maximal effective concentration (EC50) was 0.029 µM.
